According to patent publication US20230157996A1, “SMALL-MOLECULE INHIBITOR TARGETING EB VIRUS NUCLEAR ANTIGEN PROTEIN, PREPARATION METHOD AND USE THEREOF” (priority 2020, published 2023):
Read-outs that look alike come from different tables or passages of the source.

What was measured:
C666-1 cells [1] = assay: C666-1 cell viability single concentration (50 μM) inhibition rate (Resazurin); format: cell-based; conditions: Homo sapiens, C6661, 72 h, C666-1 cells
Outline: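 Resazurin fluorescence (560/590 nm, 3 h development) gave the proliferation inhibition rate, normalised to DMSO-treated and cell-free blank wells. Compound was tested at a single 50 μmol/L final concentration on C666-1 cells for 72 h at 37° C, with duplicate wells, after 24 h seeding.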

C666-1 cells [2] = assay: C666-1 cell viability, EC50 from 8-point dilution (Resazurin); format: cell-based; conditions: Homo sapiens, C6661, 72 h, 100-0.78 μmol/L, read-out: EC50 Quantitation
Description: In order to assess the effect of the EBNA1 inhibitor at the cellular level, the cytotoxicity assay was performed. The EBNA1 inhibitor selectively killed EBV-positive cell lines ([…]-1 cells), but had no toxicity to EBV-negative cell lines (HONE1 cells and HK1 cells). In the test, 100 μL different cell lines were inoculated in a transparent 96-well plate, each well containing 5×10^3 […]-1 cells. After the cells were cultured in an incubator with 5% carbon dioxide at 37° C. for 24 hours, 10 μL compound at a concentration range from 1 mmol/L to 7.8 μmol/L was added into each well (8 points, 2-fold dilution, the final concentration was 100-0.78 μmol/L), and treated in the incubator with carbon dioxide at 37° C. for 72 hours. The cell viability was assessed using a redox indicator Resazurin. Specifically, 10 μL Resazurin at a concentration of 600 μmol/L was added into each well, and incubated at 37° C. for 3 hours, and a Tecan microplate reader was used to detect the fluorescence signal at an excitation wavelength of 560 nm and an emission wavelength of 590 nm. A software was used to fit the inhibition curve and calculate the concentration for 50% of maximal effect (EC50). The selectivity of compound activity was assessed by comparing the EC50 of EBV-positive and EBV-negative cell lines.

[3] = 50 μM compound, 72 hours, read-out: C666-1 cell viability single concentration (50 μM) inhibition rate, Ratio* (Inh %)
[4] = single concentration, read-out: Inhibition Rate (Inh %)

CCNC(=O)c1ccc(OC2CN(c3cccc(C(=O)O)c3-n3cccc3)C2)cc1 [Example 264, 3-(3-(4-(ethylcarbamoyl)phenoxy)azetidin-1-yl)-2-(1H-pyrrol-1-yl)benzoic acid]
inhibition at 50 µM (C666-1 cells [1]; [3]): < 10% | inhibition at 50 µM (C666-1 cells [1]; [4]): < 10% | EC50 (C666-1 cells [2]): > 100 µM

COc1cccc(Oc2ccc(OC3CN(c4cccc(C(=O)O)c4-n4cccc4)C3)cc2)c1 [Example 197, 3-(3-(4-(3-methoxyphenoxy)phenoxy)azetidin-1-yl)-2-(1H-pyrrol-1-yl) benzoic acid]
inhibition at 50 µM (C666-1 cells [1]; [3]): 10 to 30% | inhibition at 50 µM (C666-1 cells [1]; [4]): 10 to 30% | EC50 (C666-1 cells [2]): > 100 µM

COC(=O)c1cccc(N2CC(Oc3ccc(C(=O)Nc4ccccc4)cc3)C2)c1-n1cccc1 [Example 263, Methyl 3-(3-(4-(phenylcarbamoyl)phenoxy)azetidin-1-yl)-2-(1H-pyrrol-1-yl)benzoate]
inhibition at 50 µM (C666-1 cells [1]; [3]): 10 to 30% | inhibition at 50 µM (C666-1 cells [1]; [4]): 10 to 30% | EC50 (C666-1 cells [2]): > 100 µM

COC(=O)c1cccc(N2CC(Oc3ccc(COC(=O)OC4CCOCC4)cc3)C2)c1-n1cccc1 [Example 234, Methyl 3-(3-(4-(((((tetrahydro-2H-pyran-4-yl)oxy)carbonyl)oxy)methyl)phenoxy)azetidin-1-yl)-2-(1H-pyrrol-1-yl)benzoate]
inhibition at 50 µM (C666-1 cells [1]; [3]): > 50% | inhibition at 50 µM (C666-1 cells [1]; [4]): > 50% | EC50 (C666-1 cells [2]): < 50 µM

O=C(O)c1cccc(N2CC(Oc3ccc(Oc4ccc(C(F)(F)F)cc4)cc3)C2)c1-n1cccc1 [Example 292, 3-(3-(4-(4-(trifluoromethyl)phenoxy)phenoxy)azetidin-1-yl)2-(1H-pyrrol-1-yl)benzoic acid]
inhibition at 50 µM (C666-1 cells [1]; [3]): > 50% | inhibition at 50 µM (C666-1 cells [1]; [4]): > 50% | EC50 (C666-1 cells [2]): < 50 µM

COC(=O)c1cccc(N2CC(OC(=O)Nc3ccc(OC(F)(F)F)cc3)C2)c1-n1cccc1 [Example 153, Methyl 2-(1H-pyrrol-1-yl)-3-(3-(((4-(trifluoromethoxy)phenyl)carbamoyl)oxy)azetidin-1-yl)benzoate]
inhibition at 50 µM (C666-1 cells [1]; [3]): 10 to 30% | inhibition at 50 µM (C666-1 cells [1]; [4]): 10 to 30% | EC50 (C666-1 cells [2]): 75 to 100 µM
